Assay results published in PubChem BioAssay (NCI).
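All cell lines were grown in 96-well plates and treated with compound for 48 hours. GI50 marks 50% less growth. TGI: total growth inhibition.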

What was measured:
Assay in all cases: NCI-60 cell line screen, 48 h
[1] = system: OVCAR-4 ovarian
[2] = system: HOP-92 NSCLC
[3] = system: MDA-MB-435
[4] = system: HCT-15 colon
[5] = system: NCI-H460 lung
[6] = system: MDA-MB-231 breast
[7] = system: RPMI-8226 leukemia
[8] = system: HS 578T breast
[9] = system: A549 NSCLC
[10] = system: KM12 colon

Row | SMILES | TGI [1] | TGI [2] | TGI [3] | TGI [4] | TGI [5] | TGI [6] | TGI [7] | TGI [8] | TGI [9] | TGI [10] | GI50 [2] | GI50 [4] | GI50 [5] | GI50 [7] | GI50 [10]
1 | CC(O)CNC1=CC(=O)C(=O)c2ccccc21 (stereo unspecified) | 26 µM | 53.3 µM | 23.9 µM | 33.6 µM | 30.6 µM | 73.6 µM | 48 µM | 61.8 µM | 39.5 µM | 56.2 µM |  |  |  |  | 
2 | COC(=O)C1=C(C)NC(C)=C(C(=O)OC)C1c1cccc(N=O)c1 | 26.2 µM | 20.1 µM | 29.7 µM | 32.5 µM | 31 µM | 27.9 µM | > 100 µM |  | > 100 µM | 30.2 µM |  |  |  |  | 
3 | CNC(=S)NNc1ncnc2c1c(-c1ccc(Cl)cc1)cn2-c1ccc(C)cc1 | 37.6 µM | 30.8 µM | 23.6 µM | 21 µM | 17.8 µM | 21.7 µM | 75.9 µM | 57.8 µM | 19.2 µM | 22 µM |  |  |  |  | 
4 | O=CN1CCN(C(=O)c2ccco2)C1=S | 46.6 µM | 18.7 µM | 19.7 µM | 25.7 µM | 42.1 µM | 33.9 µM | 8.96 µM | > 100 µM | 26.9 µM | 20.1 µM |  |  |  |  | 
5 | NC(N)=NS(=O)(=O)c1ccc(NC(=O)c2cccc3c(NNc4ccc(S(N)(=O)=O)cc4)c4ccccc4nc23)cc1 | > 100 µM | 85.6 µM | > 100 µM | > 100 µM | > 100 µM | > 100 µM | > 100 µM | > 100 µM | > 100 µM | > 100 µM |  |  |  |  | 
6 | CCN1CCN(Cc2ccc(NC(=O)Nc3ccc(-n4ccc5c(NC(=O)c6ccccc6)nccc54)cc3)cc2C(F)(F)F)CC1 |  | 59.6 µM |  | 1.81 µM | 1.45 µM |  | > 100 µM |  |  | 1.45 µM | 13.3 µM | 0.227 µM | 0.0811 µM | 0.942 µM | 0.0271 µM
7 | COc1ccc2c(c1)-c1c(c3cc(OC)ccc3n1CCN(C)C)CC2 | 33.1 µM | 27.7 µM | 26.4 µM | 28.9 µM | 25.9 µM | 28.2 µM | 31.2 µM | 28 µM | 29.9 µM | 36.7 µM |  |  |  |  | 
8 | CC[N+]1(C)CCC(O)(c2ccc(C)cc2)C(C(=O)c2ccc(C)cc2)C1 (stereo unspecified) | 86.3 µM | 46.2 µM | > 100 µM | 45.9 µM | > 100 µM | 62.3 µM | 37.3 µM | > 100 µM | > 100 µM | > 100 µM |  |  |  |  | 
9 | Cc1nnc2n1-c1ccccc1N(Cc1ccccc1)CC2 | > 100 µM | 51.9 µM | > 100 µM | > 100 µM | > 100 µM | > 100 µM | 58.3 µM | > 100 µM | > 100 µM | > 100 µM |  |  |  |  | 
10 | COC(=O)C1=C(C(=O)OC)SC(=C2SC3=C(SC(=C4SCCS4)S3)S2)S1 |  | > 100 µM | > 100 µM |  |  | > 100 µM | > 100 µM | > 100 µM | > 100 µM | > 100 µM |  |  |  |  | 
11 | Cc1nc(SCC(N)=O)c2sc(=S)n(-c3ccccc3)c2n1 | > 10 µM | > 10 µM | > 10 µM | > 10 µM | > 10 µM | > 10 µM | > 10 µM | > 10 µM | > 10 µM | > 10 µM |  |  |  |  | 
